Laboratory results reported in article PMC10247784, “Physiological activation of human and mouse bitter taste receptors by bile acids” (Communications Biology, 2023).

Target: T1, mouse Tas2r144 (Mus musculus, UniProt Q7TQB8)
T1 construct: expressed in transfected cells; host or cells: HEK293T-Gα16gust44
Test: Calcium imaging assay (FLIPR), HEK293T-Gα16gust44 cells transfected with mouse Tas2r144
Assay type: cell-based
Conditions: for Δ F/F: Tas2r144
Procedure: This set of bile acids was chosen because of their commercial availability in high purities, their diversity within the class of bile acids and their previous detection and quantitation in human blood. Stock solutions were prepared in DMSO.
As basal growth medium for the HEK293T-Gα16gust44 cell line[17],[59] served Dulbecco’s modified eagle medium (DMEM) (Thermo Fisher Scientific, Darmstadt, Germany) supplemented with 10 % fetal bovine serum (Sigma-Aldrich, Steinheim, Germany), 2 mM L-glutamine (Sigma-Aldrich, Steinheim, Germany), 100 units/ml penicillin (Sigma Aldrich, Steinheim, Germany) and 100 µg/ml streptomycin (Sigma Aldrich, Steinheim, Germany). Growth conditions were 37 °C, 5 % CO2 and saturated air-humidity[60].
HEK293T-Gα16gust44 cells were seeded on poly-D-lysine (10 µg/ml) coated 96-well plates to reach a confluence of 40-60 % the next day. For transient transfection 150 ng of plasmid DNA containing the receptor of interest and 0.3 µl lipofectamine 2000 (Thermo Fisher Scientific, Darmstadt, Germany) per well were used and transfection took place according to the manual of lipofectamine 2000. […] The empty vector DNA (mock) was transfected as negative control[14],[41].
Cells were loaded using the calcium-sensitive fluorescent dye Fluo-4-AM (Abcam, Cambridge, Great Britain) in the presence of 2.5 mM probenecid (Sigma-Aldrich, Steinheim, Germany) the day after transfection[13],[41]. 1 h after loading, cells were washed with C1 buffer using a BioTek Cell Washer, incubated in the dark for half an hour and washed again. For automated agonist application and measurement of fluorescence changes, a FLIPR^TETRA device (Molecular Devices, San José, United States) was used. Viability of cells was tested by application of 100 nM Somatostatin 14 (Bachem, Bubendorf, Switzerland)[42].
Measured data were negative control corrected by subtracting the signal of the mock-transfected cells and exported to Microsoft Excel using the FLIPR software ScreenWorks 4.2. In Microsoft Excel software, standardization of maximum fluorescence intensities to the basal fluorescence and normalization to the buffer-only control was done to calculate the relative fluorescence changes (ΔF/F).
Initial screening experiments performed in duplicate wells were confirmed by at least one replication and representative traces were selected for display. All dose-response relationships were determined by three independent experiments (biological replicates) performed in duplicates (technical replicates). Threshold concentrations, defined as lowest substance concentrations leading to statistically significant elevated fluorescence changes in receptor-transfected cells compared with empty vector-transfected cells, were determined using SigmaPlot with Student’s t-test to evaluate statistical significance (p < 0.01).

T1 sequence (Q7TQB8 whole entry): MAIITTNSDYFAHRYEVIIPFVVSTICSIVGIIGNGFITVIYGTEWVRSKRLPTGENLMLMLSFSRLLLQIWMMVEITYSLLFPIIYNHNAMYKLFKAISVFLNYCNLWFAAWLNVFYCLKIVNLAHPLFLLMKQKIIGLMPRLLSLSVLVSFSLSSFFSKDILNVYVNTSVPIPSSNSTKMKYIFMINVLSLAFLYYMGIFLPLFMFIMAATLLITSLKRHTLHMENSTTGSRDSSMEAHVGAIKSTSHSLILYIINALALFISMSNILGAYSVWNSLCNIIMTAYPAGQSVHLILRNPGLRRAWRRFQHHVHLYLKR

C[C@H](CCC(=O)NCCS(=O)(=O)O)[C@H]1CC[C@H]2[C@@H]3[C@H](O)C[C@@H]4C[C@H](O)CC[C@]4(C)[C@H]3C[C@H](O)[C@]12C [Taurocholic Acid, taurocholic acid]
Δ F/F (conc. 0,01 mM): -0.002199
Δ F/F (conc. 0,1 mM): 0.02935
Δ F/F (conc. 0,03 mM): 0.001887
Δ F/F (conc. 0,3 mM): 0.09426
Δ F/F (conc. 0,003 mM): -2.869e-5
RLU (Time 0 s): 0 RLU
RLU (Time 2 s): 20.3472 RLU
RLU (Time 4 s): -2.315 RLU
RLU (Time 6 s): 2.885 RLU
RLU (Time 8 s): 19.0475 RLU
RLU (Time 12 s): 10.0521 RLU
RLU (Time 14 s): 38.5551 RLU
RLU (Time 16 s): 31.9896 RLU
RLU (Time 18 s): 16.9759 RLU
RLU (Time 18.781 s): 35.5911 RLU
RLU (Time 20.781 s): -26.0614 RLU
RLU (Time 22.781 s): 10.3855 RLU
RLU (Time 24.781 s): 42.5149 RLU
RLU (Time 26.781 s): 75.1117 RLU
RLU (Time 28.781 s): 107.959 RLU
RLU (Time 30.781 s): 191.931 RLU
RLU (Time 32.781 s): 233.393 RLU
RLU (Time 34.781 s): 329.647 RLU
RLU (Time 36.781 s): 353.155 RLU
RLU (Time 38.781 s): 375.923 RLU
RLU (Time 40.781 s): 418.403 RLU
RLU (Time 42.781 s): 459.472 RLU
RLU (Time 44.781 s): 478.994 RLU
RLU (Time 46.781 s): 502.94 RLU
RLU (Time 48.781 s): 488.439 RLU
RLU (Time 50.781 s): 507.687 RLU
RLU (Time 52.781 s): 535.446 RLU
RLU (Time 54.781 s): 537.48 RLU
RLU (Time 56.781 s): 552.298 RLU
RLU (Time 58.781 s): 553.568 RLU
RLU (Time 60.781 s): 540.78 RLU
RLU (Time 62.781 s): 553.576 RLU
RLU (Time 64.781 s): 587.565 RLU
RLU (Time 66.781 s): 607.94 RLU
RLU (Time 68.781 s): 577.506 RLU
RLU (Time 70.781 s): 560.61 RLU
RLU (Time 72.781 s): 573.499 RLU
RLU (Time 74.781 s): 563.961 RLU
RLU (Time 76.781 s): 534.766 RLU
RLU (Time 78.781 s): 571.912 RLU
RLU (Time 80.781 s): 551.232 RLU
RLU (Time 82.781 s): 526.613 RLU
RLU (Time 84.781 s): 546.451 RLU
RLU (Time 86.781 s): 562.077 RLU
RLU (Time 88.781 s): 533.968 RLU
RLU (Time 90.781 s): 548.478 RLU
RLU (Time 92.781 s): 529.823 RLU
RLU (Time 94.781 s): 519.583 RLU
RLU (Time 96.781 s): 507.965 RLU
RLU (Time 98.781 s): 551.349 RLU
RLU (Time 100.781 s): 524.649 RLU
RLU (Time 102.781 s): 541.47 RLU
RLU (Time 104.781 s): 532.417 RLU
RLU (Time 106.781 s): 501.886 RLU
RLU (Time 108.781 s): 527.817 RLU
RLU (Time 110.781 s): 463.149 RLU
RLU (Time 112.781 s): 531.02 RLU
RLU (Time 114.781 s): 478.341 RLU
RLU (Time 116.781 s): 478.013 RLU
RLU (Time 118.781 s): 466.916 RLU
RLU (Time 120.781 s): 480.033 RLU
RLU (Time 122.781 s): 446.768 RLU
RLU (Time 124.781 s): 466.738 RLU
RLU (Time 126.781 s): 436.51 RLU
RLU (Time 128.781 s): 391.35 RLU
RLU (Time 130.781 s): 423.189 RLU
RLU (Time 132.781 s): 388.666 RLU
RLU (Time 134.781 s): 393.586 RLU
RLU (Time 136.781 s): 381.514 RLU
RLU (Time 137.562 s): 357.695 RLU
RLU (Time 143.562 s): 342.181 RLU
RLU (Time 149.562 s): 317.247 RLU
RLU (Time 155.562 s): 281.598 RLU
RLU (Time 161.562 s): 257.735 RLU
RLU (Time 167.562 s): 210.766 RLU
RLU (Time 173.562 s): 206.542 RLU
RLU (Time 179.562 s): 190.508 RLU
RLU (Time 185.562 s): 200.355 RLU
RLU (Time 191.562 s): 160.215 RLU
RLU (Time 197.562 s): 155.746 RLU
RLU (Time 203.562 s): 134.432 RLU
RLU (Time 209.562 s): 105.802 RLU
RLU (Time 215.562 s): 143.523 RLU
RLU (Time 221.562 s): 59.3524 RLU
RLU (Time 227.562 s): 55.9412 RLU
RLU (Time 233.562 s): 52.6104 RLU
RLU (Time 239.562 s): 63.4802 RLU
RLU (Time 245.562 s): 58.9605 RLU
RLU (Time 293.562 s): 59.2604 RLU
RLU (Time 299.562 s): 83.1975 RLU
RLU (Time 305.562 s): 80.6402 RLU
RLU (Time 311.562 s): 35.6084 RLU
RLU (Time 317.562 s): 31.2984 RLU
RLU (Time 323.562 s): -1.058 RLU
RLU (Time 329.562 s): 12.6222 RLU
RLU (Time 335.562 s): -16.6341 RLU
RLU (Time 341.562 s): 9.34 RLU
RLU (Time 347.562 s): 17.8158 RLU
RLU (Time 353.562 s): 33.5062 RLU
RLU (Time 359.562 s): 34.8754 RLU
Activation threshold concentration Tas2r144 (p < 0.01 vs empty vector): 300 µM
